Entries after “also recorded” stand apart in the source; their conditions may differ.
System: FITC-IgG
Experiment: Confocal fluorescence imaging with FITC-IgG
Format: binding
Conditions: 2 μM FITC-IgG in PBS pH 7.4
From the text: FIGS. 10A-C. […] (A) Image of Rhodamine B fluorescence. (B) Image of FITC fluorescence and (C) merged image of (A) and (B). Scale bar: 20 μm.
To better visualize the interactions between C12-Z33 immunofibers and IgG, labelling the C12-Z33 with the fluorescent dye (Rhodamine B) allows for direct imaging of fluorescent immunofibers and FITC-IgG under a confocal laser scanning microscope. Rhodamine B has been extensively used for staining biomaterials. […] The self-assembled fibrous morphology in PBS was confirmed using TEM (FIG. 9C). 100 μM RB-C12-Z33 diluted from a 1 mM stock solution and 2 μM FITC-IgG were premixed in PBS. 30 μl solution was spotted on a clean microscope slide right before imaging and covered by a coverslip to obtain a thin layer of liquid.

RB-C12-Z33: Rhodamine B labelled C12-Z33; lysine added at N-terminal of Z33, Rhodamine B and C12 conjugated to its amine groups
fluorescence of FITC-IgG after incubation (confocal): co-localization of the fluorescence signal; also recorded: co-localization of fluorescence signals
